# Read-outs that look alike come from different tables or passages of the source.
# Tests used:
# EBC-1 NSCLC cells = test: CellTiter-Glo cell viability assay on EBC-1 cells; type: cell-based; conditions: for IC50: CellTiter-Glo, 72 h treatment, read-out: IC50, viability inhibition on EBC-1 cells
# Method: EBC-1 cell line was obtained from the Japanese Collection of Research Bioresources Cell Bank (JCRB, Solana Beach, CA 92075 USA) and cultured in Eagle’s minimum essential medium (EMEM) (Lonza, Basel, Switzerland, cat. no.: BE12-611F,) supplemented with 1% MycoZap (Lonza, cat. no.: VZA-2012) and 10% fetal bovine serum (FBS) (Thermo Fisher Scientific, Waltham, MA, USA, cat. no.: 10500-064).
# (§1) Effects of the synthesized compounds on EBC-1 and fibroblast cell viability was measured via CellTiter-Glo® luminescent cell viability assay (Promega, Madison, WI, USA) according to the manufacturer’s instructions. Briefly, cells were plated at 1000 cells/well onto a flat-bottomed, white 96 well plate (BRANDplates, cat. no.: 781965). After 24 h, cells were treated for 72 h with either the desired 4-fold serial diluted compound concentrations or vehicle (0.2% DMSO) control. After the treatment, the luminescence signal was recorded using a microplate reader (BioTek Synergy 2 Multi-Mode Reader, BioTek, Winooski, VT, USA). Dose–response curves (using a non-linear regression model) were generated and IC50 values were determined using Graph Pad Prism 5.02 software (GraphPad Software, San Diego, CA, USA).
# recombinant c-Met kinase = molecular target: T1, recombinant c-Met kinase (Homo sapiens, UniProt P08581); test: In vitro inhibition of recombinant c-Met kinase (ADP-Glo); type: biochemical; conditions: recombinant kinase assay, ATP 3.1 µM
# T1 construct: purchased ProQinase 0171-0000-1
# T1 sequence (P08581 25-1390): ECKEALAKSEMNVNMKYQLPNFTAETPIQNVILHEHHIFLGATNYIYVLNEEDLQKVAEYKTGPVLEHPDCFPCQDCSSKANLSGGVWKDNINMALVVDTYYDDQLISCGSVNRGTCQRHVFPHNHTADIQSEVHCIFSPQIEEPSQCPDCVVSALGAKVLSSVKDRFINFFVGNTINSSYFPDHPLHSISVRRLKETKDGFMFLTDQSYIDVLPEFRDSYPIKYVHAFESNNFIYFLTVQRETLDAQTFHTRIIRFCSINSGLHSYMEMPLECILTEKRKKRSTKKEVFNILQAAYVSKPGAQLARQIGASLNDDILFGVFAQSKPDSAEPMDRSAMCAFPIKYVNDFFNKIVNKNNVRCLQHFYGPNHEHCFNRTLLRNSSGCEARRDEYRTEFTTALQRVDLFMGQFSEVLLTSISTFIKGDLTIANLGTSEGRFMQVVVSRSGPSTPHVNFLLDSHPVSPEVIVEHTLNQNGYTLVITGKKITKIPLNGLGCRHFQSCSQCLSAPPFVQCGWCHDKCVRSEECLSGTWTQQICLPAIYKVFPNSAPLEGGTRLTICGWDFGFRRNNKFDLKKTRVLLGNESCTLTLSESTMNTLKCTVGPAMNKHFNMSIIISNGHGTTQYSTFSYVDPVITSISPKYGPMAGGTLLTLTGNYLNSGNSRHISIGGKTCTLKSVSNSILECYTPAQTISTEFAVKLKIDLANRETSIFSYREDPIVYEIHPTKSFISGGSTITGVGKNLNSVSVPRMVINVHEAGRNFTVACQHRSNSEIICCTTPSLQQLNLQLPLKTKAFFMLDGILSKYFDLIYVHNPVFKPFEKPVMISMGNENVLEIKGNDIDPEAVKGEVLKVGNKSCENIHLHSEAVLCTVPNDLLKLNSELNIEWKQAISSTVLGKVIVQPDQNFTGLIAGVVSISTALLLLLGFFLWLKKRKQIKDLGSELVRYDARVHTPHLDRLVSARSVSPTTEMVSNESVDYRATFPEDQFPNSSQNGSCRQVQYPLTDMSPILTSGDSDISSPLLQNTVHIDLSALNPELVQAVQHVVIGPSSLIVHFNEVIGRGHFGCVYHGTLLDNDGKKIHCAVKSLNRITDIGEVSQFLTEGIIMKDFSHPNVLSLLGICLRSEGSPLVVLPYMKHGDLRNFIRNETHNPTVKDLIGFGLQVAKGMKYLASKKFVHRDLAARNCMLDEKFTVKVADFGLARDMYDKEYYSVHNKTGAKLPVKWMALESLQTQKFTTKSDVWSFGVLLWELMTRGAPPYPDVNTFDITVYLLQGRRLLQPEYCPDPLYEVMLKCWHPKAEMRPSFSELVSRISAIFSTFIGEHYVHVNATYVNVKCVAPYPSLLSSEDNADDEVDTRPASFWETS
# Method: Reaction buffer was prepared according to ProQinase’s recommendation [60 mM HEPES, 3 mM MgCl2, 3 mM MnCl2, 3 µM Na3VO4, 1.2 mM DTT (dithiothreitol), and 50 µg/mL PEG20,000, (reagents were obtained from Merck Millipore)]. Enzyme activity was assayed in 384 well, low-volume white microtiter plates (Corning®, Merck Millipore, cat. no.: CLS4513-50EA). Compounds were preincubated with c-Met kinase for 30 min at room temperature and reactions were started by adding the substrate–ATP mixture. Reaction time was 60 min at room temperature. Enzyme reaction was stopped using ADP-Glo™ Kinase Assay (Promega, cat. no.: V6930) according to the manufacturer’s instructions (40 min incubation with ADP-Glo™ Reagent, 30 min incubation with Kinase detection reagent at 25 °C). All measurements were performed using a Synergy 2 Multi-Mode Reader (BioTek, Winooski, VT, USA). Raw enzyme activity values were converted to relative activity data using positive and negative controls.
# human pituitary GnRHR = molecular target: T2, human pituitary GnRHR (Homo sapiens, UniProt P30968); test: Radioligand competition assay, [125I]-[D-Trp6]-GnRH-I displacement, human pituitary membranes; conditions: inhibition of [125I]-[D-Trp6]-GnRH-I binding to membranes
# T2 construct: Normal human pituitary (anterior lobe) tissue was collected at autopsy; from tissue; host or cells: normal human pituitary (anterior lobe), autopsy tissue, membranes
# T2 sequence (P30968 1-328): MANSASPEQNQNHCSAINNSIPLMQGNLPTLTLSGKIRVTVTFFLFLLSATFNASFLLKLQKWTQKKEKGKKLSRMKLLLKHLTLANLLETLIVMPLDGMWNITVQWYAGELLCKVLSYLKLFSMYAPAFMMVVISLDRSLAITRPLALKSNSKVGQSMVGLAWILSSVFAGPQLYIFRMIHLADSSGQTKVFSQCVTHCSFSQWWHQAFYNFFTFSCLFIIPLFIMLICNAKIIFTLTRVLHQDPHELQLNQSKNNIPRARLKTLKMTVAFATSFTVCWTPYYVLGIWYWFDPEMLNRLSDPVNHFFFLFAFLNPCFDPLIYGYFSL
# Method: (§2) The collection and use of the tissue samples for our studies were approved by the local Institutional Ethics Committee. Normal human pituitary (anterior lobe) tissue was collected at autopsy and the human prostate cancer specimen was obtained from a patient at the time of initial surgical treatment. The ligand competition assay was performed as described previously.
# prostate cancer GnRHR = molecular target: T3, prostate cancer GnRHR (Homo sapiens, UniProt P30968); test: Radioligand competition assay, [125I]-[D-Trp6]-GnRH-I displacement, human prostate cancer membranes; conditions: inhibition of [125I]-[D-Trp6]-GnRH-I binding to membranes
# T3 construct: the human prostate cancer specimen was obtained from a patient at the time of initial surgical treatment; from tissue; host or cells: human prostate cancer surgical specimen, membranes
# T3 sequence (P30968 1-328): T2 sequence (P30968 1-328)
# Method: as §2
# c-Met = c-Met phosphorylation in EBC-1 cells by western blot; type: cell-based; conditions: 6 h
# Method: To analyze the effect of the compounds on c-Met phosphorylation, EBC-1 cells were seeded in six well plates and grown to 90% confluence. […] Cells were incubated with the compounds for 6 h at 37 °C in a CO2 incubator. After the incubation, western blot analysis was performed. To investigate GnRH-R protein level, cells were seeded in six well plates and grown to 90% confluence, then western blot analysis was applied.
# Bands were visualized via Enhanced Chemiluminescence detection system (Western Lightning ECL Pro, PerkinElmer, Waltham, MA, USA, cat. no.: NEL122001EA).
# [1] = pH-dependent artificial membrane permeability assay (PAMPA); type: in vitro ADME
# Method: An artificial-membrane-based system (BD Gentest™ Pre-Coated PAMPA plate, Corning, cat. no.: 353015) was used to determine the pH-dependent membrane permeability of the compounds. In this method, the protocol provided by the manufacturer was followed with minor modifications. Four different pH values were applied per compound. […] Stock solutions of compounds in DMSO were diluted to 100 µM in each PBS. PBS solutions were loaded into the donor wells, but the acceptor wells were filled with physiological PBS (pH = 7.4). The system was gently shaken (BioSan Thermo-Shaker PST-60HL) for 5 h at 25 °C. […] Calculation formula and the calculated data are available in the Supplementary Information, Section S4. page 11: S4. PAMPA Calculation formula: −ln(1 − CaCe) Pe = 1 1 A ∗ (Vd + Va) ∗ t Ce = (Cd ∗ Vd + Ca∗ Va)/(Vd + Va) R = 1 − Cd ∗ Vd + Ca∗ Va C0 ∗ Vd Pe = permeability (cm/s) R = mass retention (percentage loss of compound due to non-specific binding to the plastic surfaces during the permeation assay) A = membrane area (cm2) c0 = initial donor concentration ca = final acceptor concentration cd = final donor concentration ce = equilibrium concentration t = incubation time (sec) Va = acceptor volume (mL) Vd = donor volume (mL)
# EBC-1 cells = test: Galectin puncta assay for lysosomal membrane permeabilization; type: cell-based; conditions: 8 h
# Method: EBC-1 cells were seeded on eight well Ibidi® μ-Slide microscopic slides (2 × 10^4 cells/well) and allowed to adhere for 48 h. […] Untreated (0.2% DMSO in EMEM) cells were used as a negative control. Cells were incubated with the compounds for 8 h at 37 °C in a CO2 incubator. Cells were fixed with 4% paraformaldehyde for 10 min and washed twice with PBS (Lonza). Cells were permeabilized with 0.1% (v/v) Triton X-100 PBS solution for 10 min. After blocking (5% v/v BSA in PBS), cells were incubated with anti-galectin 3 (Merck, cat. no.: SAB4501746, dilution: 1:100) and anti-galectin-1 (Santa Cruz Biotechnology, cat. no.: sc-166618, dilution: 1:100) primary antibodies overnight at 25 °C, followed by Alexa-Fluor-488-conjugated (Jackson ImmunoResearch., cat. no.: 111-545-003, dilution: 1:500) and Alexa-Fluor-594-conjugated (Jackson ImmunoResearch, cat. no.: 115-585-003, dilution: 1:250) secondary antibodies for 1 h at 25 °C. DRAQ5 (10 µM) was added to the cells for 15 min. Cells were washed three times with PBS and a few drops of mounting media (Merck Millipore) were added. Images of cells were acquired with a confocal laser microscope (Zeiss Confocal LSM 710). [Objective: Plan-Apochromat 63x/1.40 Oil DIC M27. Pinhole: 1.01 AU. Laser wavelength: 488 nm, 543 nm and 633 nm. Detection wavelength: 504–539 nm; 602–651 nm; 694–758 nm)].
# [2] = tested on: primary human skin fibroblast cells; test: CellTiter-Glo cell viability assay on primary skin fibroblast cells; type: cell-based; conditions: GnRHR-negative cells, 72 h treatment, read-out: IC50, viability inhibition on primary human skin fibroblast cells
# Method: Primary human skin fibroblast cells (fibroblast cells) were gifted by the Institute of Genomic Medicine and Rare Disorders, Semmelweis University (Budapest, Hungary). Fibroblast cells were cultured in Dulbecco’s modified Eagle’s medium (DMEM) (Thermo Fisher Scientific, cat. no.: 41965039) supplemented with 10% FBS (Thermo Fisher Scientific), 1% penicillin–streptomycin (Thermo Fisher Scientific, cat. no.: 15070063) and 1% MEM Non-Essential Amino Acids Solution (Thermo Fisher Scientific, cat. no.: 11140035). Cell cultures were grown in vitro at 37 °C, 95% air and 5% CO2 atmosphere.
# as §1
# [3] = Stability in EMEM cell culture medium at 37 °C (HPLC-UV); type: in vitro ADME; conditions: for stability in cell culture medium: EMEM, 37 °C, up to 72 h
# Method: Stock solutions of compounds in DMSO were diluted to 10 µM in complemented EMEM (Lonza). Samples were incubated for 2, 6, 24, and 72 h at 37 °C. After the incubation, acetonitrile (VWR, cat. no.: 83639.320) was added to the solutions (1:1 ratio, to achieve 50% acetonitrile content). The samples were vortexed and centrifuged (13,000× g, 10 min). Supernatants were measured by HPLC-UV. HPLC method and chromatograms are available in the Supplementary Information. Stability was calculated using the external standard method. Decay curves were generated and half-life was calculated by GraphPad Prism 5.02 software.
stability in cell culture medium [3],Compound,IC50 (recombinant c-Met kinase),IC50 (human pituitary GnRHR),IC50 (prostate cancer GnRHR),inhibition of c-Met phosphorylation in EBC-1 cells (c-Met; 100 nM),"IC50 (EBC-1 NSCLC cells; Homo sapiens, EBC-1)","IC50 ([2]; Homo sapiens, Skin fibroblast)",further results
,CC(C)C[C@H](NC(=O)[C@@H](CCCCNC(=O)CCCC(=O)N1CCC(n2cc(-c3cnc(N)c(OC(C)c4c(Cl)ccc(F)c4Cl)c3)cn2)CC1)NC(=O)[C@H](Cc1ccc(O)cc1)NC(=O)[C@H](CO)NC(=O)[C@H](Cc1c[nH]c2ccccc12)NC(=O)[C@H](Cc1c[nH]cn1)NC(=O)[C@@H]1CCC(=O)N1)C(=O)N[C@@H](CCCNC(=N)N)C(=O)N1CCC[C@H]1C(=O)NCC(N)=O (mixture of isomers) [[D-Lys^6(crizotinib*)]–GnRH-I],163 nM,34.6 ± 4.2 nM,39.5 ± 1.7 nM,no significant inhibitory effect,,,"viability inhibition effect on EBC-1 cells (EBC-1 NSCLC cells; highest 10 µM concentration): only a moderate effect; viability inhibition effect on EBC-1 cells (EBC-1 NSCLC cells; submicromolar range): did not show any significant effect; inhibition of c-Met phosphorylation in EBC-1 cells (c-Met; 1 µM): moderate; inhibition of c-Met phosphorylation in EBC-1 cells (c-Met; 10 µM): abolished; PAMPA membrane permeability ([1]; PAMPA, pH 4.8): not to be membrane-permeable; galectin puncta formation (EBC-1 cells; 0.1 µM): negligable; galectin puncta formation (EBC-1 cells; 1 µM): clearly detectable; galectin puncta formation (EBC-1 cells; 10 µM and 100 µM): more and more significant"
stable,CC(Oc1cc(-c2cnn(C3CCN(CCO)CC3)c2)cnc1N)c1c(Cl)ccc(F)c1Cl (centres unmarked) [MJ55*],39 nM,,,completely inhibited,23 nM,2600 nM,PAMPA permeability ([1]; early endosome-/lysosome-like pH (pH = 6.0 and 4.8)): near zero
,CC(C)C[C@H](NC(=O)[C@@H](CCCCNC(=O)CCCC(=O)OCCN1CCC(n2cc(-c3cnc(N)c(OC(C)c4c(Cl)ccc(F)c4Cl)c3)cn2)CC1)NC(=O)[C@H](Cc1ccc(O)cc1)NC(=O)[C@H](CO)NC(=O)[C@H](Cc1c[nH]c2ccccc12)NC(=O)[C@H](Cc1c[nH]cn1)NC(=O)[C@@H]1CCC(=O)N1)C(=O)N[C@@H](CCCNC(=N)N)C(=O)N1CCC[C@H]1C(=O)NCC(N)=O (stereo partly drawn) [[D-Lys^6(MJ55*)]–GnRH-I],~147 nM,21.7 ± 1.4 nM,29.7 ± 3.1 nM,blocked c-Met phosphorylation,,,IC50 (EBC-1 NSCLC cells): 90 nM; IC50 [2]: 3000 nM; half-life ([3]; half-life of the ester bond / conjugate in EMEM): ~8 h
stable,"CC(C)C[C@H](NC(=O)[C@@H](CCCCN)NC(=O)[C@H](Cc1ccc(O)cc1)NC(=O)[C@H](CO)NC(=O)[C@H](Cc1c[nH]c2ccccc12)NC(=O)[C@H](Cc1cnc[nH]1)NC(=O)[C@@H]1CCC(=O)N1)C(=O)N[C@@H](CCCNC(=N)N)C(=O)N1CCC[C@H]1C(=O)NCC(N)=O [[D-Lys^6]–GnRH-I, reference compound]",,,,,,,
,"Cn1c(=O)c2c(ncn2C)n(C)c1=O [caffeine, reference compound]",,,,,,,PAMPA permeability over the investigated pH range ([1]; PAMPA): remained constant
,C[C@@H](Oc1cc(-c2cnn(C3CCNCC3)c2)cnc1N)c1c(Cl)ccc(F)c1Cl [crizotinib*],,,,,28 nM,2600 nM,

# Source: article PMC6888004 (International Journal of Molecular Sciences, 2019)
